Reference: patent publication US10835500B2, “Medicament for accelerated wound healing” (Symrise AG, priority 2014, dated 2020)

Experiments:
Format in all cases: cell-based, human
p38 MAPK = assay: Western Blot, phosphorylation of p38 MAPK in HaCaT cells; conditions: 500 μM
Description: (§1) In the following, an investigation was to be conducted to determine whether a MAPK signalling pathway is activated by Sandalore® stimulation in skin cells, and if so, which pathway is involved. For detection, HaCaT cells were stimulated for 0-30 min with 500 μM of Sandalore®, and the proteins were then isolated and used in Western Blot assays.
In order to reveal a possible interaction of the two MAPK signalling pathways, ERK1/2 phosphorylation in the presence of the p38 MAPK inhibitor SB203580 and p38 MAPK phosphorylation in the presence of the ERK1/2 MAPK inhibitor U0126 were investigated.
A) Western Blot for investigating the phosphorylation of the MAP kinases in HaCaT cells stimulated for 0, 5, 15 and 30 min with Sandalore®(500 μM). […] ERK1/2: 42/44 kDa; p38: 43 kDa; JNK/SAPK: 46/54 kDA; ▪-tubulin: 52 kDa. B) Quantitative evaluation of p38 and ERK1/2 phosphorylation of HaCaT cells stimulated for 30 min with Sandalore®(500 μM) or additionally with the p38 inhibitor 5B203580 (10 μM) or ERK1/2 inhibitor U0126 (10 μM). For evaluation, the ratio of the phosphorylated (p) and unphosphorylated proteins was established and compared to that of untreated cells. Mean values including standard error. Mann-Whitney U test. *: p<0.05; ***: p<0.001. In C), the inhibitors of the respective other MAP kinase were used, and phosphorylation was compared to the cells stimulated with Sandalore® (500 μM) alone. Mean values including standard error. Mann-Whitney U test. *: p<0.05. The Western Blot analyses were carried out with three different protein isolations.

JNK/SAPK = assay: Western Blot, phosphorylation of JNK/SAPK in HaCaT cells; conditions: 500 μM, 0-30 min
Description: as §1
Effect of Sandalore® stimulation on phosphorylation of MAP kinases in skin cells. A) Western Blot for investigating the phosphorylation of the MAP kinases in HaCaT cells stimulated for 0, 5, 15 and 30 min with Sandalore®(500 μM). In order to confirm uniform protein volume, ▪-tubulin was used as a control. ERK1/2: 42/44 kDa; p38: 43 kDa; JNK/SAPK: 46/54 kDA; ▪-tubulin: 52 kDa. B) Quantitative evaluation of p38 and ERK1/2 phosphorylation of HaCaT cells stimulated for 30 min with Sandalore®(500 μM) or additionally with the p38 inhibitor 5B203580 (10 μM) or ERK1/2 inhibitor U0126 (10 μM). For evaluation, the ratio of the phosphorylated (p) and unphosphorylated proteins was established and compared to that of untreated cells. Mean values including standard error. Mann-Whitney U test. *: p<0.05; ***: p<0.001. In C), the inhibitors of the respective other MAP kinase were used, and phosphorylation was compared to the cells stimulated with Sandalore® (500 μM) alone. Mean values including standard error. Mann-Whitney U test. *: p<0.05. […]

IL-1α = assay: ELISA of secreted IL-1α in supernatant of HaCaT cells; conditions: 24-hour stimulation, 500 μM
Description: In order to investigate interleukin secretion, quantitative real-time PCR was first carried out. For this purpose, RNA from HaCaT cells was used that had previously been stimulated for 6 or 24 hours with Sandalore®. Detection was carried out with specific primers of various interleukins (IL-1α, IL-1β, IL-6, IL-8) and tumor necrosis factor (TNF▪). […] In order to corroborate the results, an ELISA assay was carried out, in which the secreted interleukins in the supernatant of the cells can be detected by means of an immunological reaction. By means of the assay used, secretion of the interleukins (IL-1α, IL-1β, IL-2, IL-4, IL-6, IL-8, IL-10, IL-12, and IL-17α), TNFα, γ-interferon (IFNγ), and granulocyte macrophage colony-stimulating factor (GMCSF) was investigated.
Investigation of interleukin secretion and phosphorylation of Akt protein kinase after Sandalore® stimulation. A) Investigation of the regulation of interleukins in HaCaT cells by means of qRT-PCR after stimulation with Sandalore® (500 μM) for 6 h and 24 h. 0.1% DMSO was used as a control. GAPDH was used as a reference gene, and the relative expression between untreated and stimulated cells was determined. Mean values including standard error. n=3 experiments. […] The measured optical density of the treated cells at 450 nm was expressed relative to the background. […]

primary keratinocytes = assay: Morphology and propidium iodide staining after 5-day stimulation, primary keratinocytes; conditions: 5-day incubation with 500 μM
Description: In order to obtain initial data on possible physiological effects caused by the activation of OR2AT4, HaCaT cells and primary keratinocytes were stimulated for five days with Sandalore®. […] A lethal effect of the odorant can therefore be ruled out (FIG. 16a).
Effect of Sandalore® long-term stimulation on morphology, growth, and migration processes in keratinocytes. A) Phase contrast image and PI stains of HaCaT cells and primary keratinocytes after stimulation with Sandalore® (500 μM) or 0.1% DMSO (control) for five days. On positive PI staining, the cell nuclei are stained red. Scale: 100 μm. B) Evaluation of the proliferation assay carried out with the CyQuant Cell Proliferation Kit on HaCaT cells after 5-day stimulation with 500 μM of Sandalore® or 0.1% DMSO (control). For the RNA interference experiments, the cells were transfected with siRNA or scRNA on the day before Sandalore® stimulation. Shown is the mean cell count including standard error relative to untreated cells. Mann-Whitney U test; n=3 experiments. *: p<0.05; **: p<0.01. S: Sandalore. C) Agarose assay for determination of migration of HaCaT cells. Top: Transmitted light images of HaCaT cells that have migrated in the direction of Sandalore® (500 μM) or 0.1% DMSO. […] The longest path traversed by the cells and the overgrown area were measured and compared to the control (0.1% DMSO). […]

HaCaT cells = assay: Agarose migration assay with HaCaT cells; conditions: 500 μM versus 0.1% DMSO, five days
Description: For this reason, an agarose migration assay was conducted in order to determine whether the increased cell growth is accompanied by increased chemotactic behavior.
Effect of Sandalore® long-term stimulation on morphology, growth, and migration processes in keratinocytes. A) Phase contrast image and PI stains of HaCaT cells and primary keratinocytes after stimulation with Sandalore® (500 μM) or 0.1% DMSO (control) for five days. On positive PI staining, the cell nuclei are stained red. Scale: 100 μm. B) Evaluation of the proliferation assay carried out with the CyQuant Cell Proliferation Kit on HaCaT cells after 5-day stimulation with 500 μM of Sandalore® or 0.1% DMSO (control). For the RNA interference experiments, the cells were transfected with siRNA or scRNA on the day before Sandalore® stimulation. Shown is the mean cell count including standard error relative to untreated cells. Mann-Whitney U test; n=3 experiments. *: p<0.05; **: p<0.01. S: Sandalore. C) Agarose assay for determination of migration of HaCaT cells. Top: Transmitted light images of HaCaT cells that have migrated in the direction of Sandalore® (500 μM) or 0.1% DMSO. The growth margin of the cells was surrounded in black. Scale: 250 μm. Bottom: Evaluation of the proliferation assay. The longest path traversed by the cells and the overgrown area were measured and compared to the control (0.1% DMSO). Paired two-sided T test. […]

## CC1=CCC(CCC(C)C(C)O)C1(C)C (stereo not drawn) [Sandalore®]
p38 MAPK; 30-minute stimulation
  phosphorylation of p38 MAPK, quantification: significant increase
p38 MAPK; within 5-30 min
  phosphorylation of p38 MAPK: increased phosphorylation
JNK/SAPK
  phosphorylation of JNK/SAPK: no phosphorylation of JNK/SAPK
IL-1α
  secretion of IL-1α relative to the control (0.1% DMSO): significantly increased secretion
Primary keratinocytes
  morphological changes or PI staining (lethal effect): neither the HaCaT cells nor the keratinocytes showed morphological changes or PI staining
HaCaT cells
  chemotactic migration of the HaCaT cells: significant chemotactic migration
